In ChEMBL document CHEMBL4417631, “Oral peptide inhibitors of interleukin-23 receptor and their use to treat inflammatory bowel diseases” (2017):
Where a SMILES comes first, the peptide text is derived from it.

Biological target: T1, Interleukin-23 receptor (Homo sapiens, UniProt Q5VWK5)
T1 sequence (Q5VWK5 whole entry): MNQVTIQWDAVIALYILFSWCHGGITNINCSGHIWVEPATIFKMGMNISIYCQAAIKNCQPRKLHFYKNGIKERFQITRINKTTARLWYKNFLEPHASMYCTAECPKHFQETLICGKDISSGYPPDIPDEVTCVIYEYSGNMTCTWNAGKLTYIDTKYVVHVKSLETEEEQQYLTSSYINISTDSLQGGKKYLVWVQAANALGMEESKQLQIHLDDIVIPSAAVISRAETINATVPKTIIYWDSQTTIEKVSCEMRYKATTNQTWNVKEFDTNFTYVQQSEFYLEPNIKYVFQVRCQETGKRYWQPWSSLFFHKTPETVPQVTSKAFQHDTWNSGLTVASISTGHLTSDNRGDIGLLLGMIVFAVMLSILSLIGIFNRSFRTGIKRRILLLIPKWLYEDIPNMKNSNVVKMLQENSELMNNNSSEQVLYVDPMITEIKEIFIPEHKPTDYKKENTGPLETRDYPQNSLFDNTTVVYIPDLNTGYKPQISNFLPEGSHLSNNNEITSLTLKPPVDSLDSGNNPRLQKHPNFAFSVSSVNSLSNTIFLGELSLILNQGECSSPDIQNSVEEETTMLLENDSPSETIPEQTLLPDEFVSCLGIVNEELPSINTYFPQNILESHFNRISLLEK
Assay: Inhibition of interleukin-23 binding to human interleukin-23 receptor incubated for 2 hrs by competitive binding ELISA

Row | Compound | IC50 [µM]
1 | CC(=O)N[C@@H](CS)C(=O)N[C@@H](C)C(=O)N[C@@H](CC(=O)O)C(=O)N[C@@H](Cc1c[nH]c2ccccc12)C(=O)N[C@H](C(=O)N[C@@H](CS)C(=O)N[C@@H](Cc1ccc(O)cc1)C(=O)N[C@@H](Cc1c[nH]c2ccccc12)C(=O)N[C@@H](Cc1cnc[nH]1)C(=O)N[C@H](C(=O)N[C@@H](Cc1ccccc1)C(=O)NCC(=O)N[C@@H](CC(=O)O)C(=O)N[C@@H](CCCCNC(=O)COCC(=O)NCCCC[C@H](NC(=O)[C@H](CC(=O)O)NC(=O)CNC(=O)[C@H](Cc1ccccc1)NC(=O)[C@@H](NC(=O)[C@H](Cc1cnc[nH]1)NC(=O)[C@H](Cc1c[nH]c2ccccc12)NC(=O)[C@H](Cc1ccc(O)cc1)NC(=O)[C@H](CS)NC(=O)[C@@H](NC(=O)[C@H](Cc1c[nH]c2ccccc12)NC(=O)[C@H](CC(=O)O)NC(=O)[C@H](C)NC(=O)[C@H](CS)NC(C)=O)C(C)C)[C@@H](C)O)C(=O)O)C(=O)O)[C@@H](C)O)C(C)C | 1 to 10
2 | CC(=O)N[C@H]1CCSC[C@@H](C(=O)N[C@@H](Cc2ccc(OCCN)cc2)C(=O)N[C@@H](Cc2ccc3ccccc3c2)C(=O)N[C@@](C)(CCCCN)C(=O)N[C@@H](CCC(=O)O)C(=O)N[C@@H](CC(N)=O)C(=O)NCC(N)=O)NC(=O)[C@H](CCC(N)=O)NC(=O)[C@H](c2ccc(Cl)c(Cl)c2)NC(=O)[C@H]([C@@H](C)O)NC(=O)[C@H](CCC(N)=O)NC1=O | > 3
3 | CC(C)[C@H](NC(=O)[C@H](Cc1c[nH]c2ccccc12)NC(=O)[C@H](CC(=O)O)NC(=O)CN(C)C(=O)[C@@H](N)CS)C(=O)N[C@@H](CS)C(=O)N[C@@H](Cc1ccc(O)cc1)C(=O)N[C@@H](Cc1cccc2ccccc12)C(=O)N[C@@H](Cc1cnc[nH]1)C(=O)N[C@H](C(=O)N[C@@H](Cc1ccccc1)C(=O)O)[C@@H](C)O | > 1
4 | CC(=O)N[C@H](CCCCNC(=O)COCC(=O)NCCCC[C@@H](NC(C)=O)C(=O)N[C@@H](CO)C(=O)N[C@@H](CS)C(=O)N[C@@H](C)C(=O)N[C@@H](CC(=O)O)C(=O)N[C@@H](Cc1c[nH]c2ccccc12)C(=O)N[C@H](C(=O)N[C@@H](CS)C(=O)N[C@@H](Cc1ccc(O)cc1)C(=O)N[C@@H](Cc1c[nH]c2ccccc12)C(=O)N[C@@H](Cc1cnc[nH]1)C(=O)N[C@H](C(=O)N[C@@H](Cc1ccccc1)C(=O)NCC(=O)O)[C@@H](C)O)C(C)C)C(=O)N[C@@H](CO)C(=O)N[C@@H](CS)C(=O)N[C@@H](C)C(=O)N[C@@H](CC(=O)O)C(=O)N[C@@H](Cc1c[nH]c2ccccc12)C(=O)N[C@H](C(=O)N[C@@H](CS)C(=O)N[C@@H](Cc1ccc(O)cc1)C(=O)N[C@@H](Cc1c[nH]c2ccccc12)C(=O)N[C@@H](Cc1cnc[nH]1)C(=O)N[C@H](C(=O)N[C@@H](Cc1ccccc1)C(=O)NCC(=O)O)[C@@H](C)O)C(C)C | > 10
5 | CC(=O)N[C@H]1CCSC[C@@H](C(=O)N[C@@H](Cc2ccc(OCCN)cc2)C(=O)N[C@@H](Cc2ccc3ccccc3c2)C(=O)N[C@@](C)(CCCCN)C(=O)N[C@@H](CCC(=O)O)C(=O)N[C@@H](CC(N)=O)C(=O)NCC(N)=O)NC(=O)[C@H](CCC(N)=O)NC(=O)[C@H](c2ccc(OCCN)cc2)NC(=O)[C@H]([C@@H](C)O)NC(=O)[C@H](CCC(N)=O)NC1=O | > 3
6 | CC(=O)N[C@@H](CS)C(=O)N[C@@H](CCC(N)=O)C(=O)N[C@H](C(=O)N[C@@H](Cc1c[nH]c2ccccc12)C(=O)N[C@@H](CCC(N)=O)C(=O)N[C@@H](CS)C(=O)N[C@@H](Cc1ccc(O)cc1)C(=O)N[C@H](CC(=O)N[C@@H](CCCNC(=N)N)C(=O)N[C@H](C(=O)N[C@@H](CC(N)=O)C(=O)NCC(=O)NCCOCC(=O)N[C@H](CCCCN)C(N)=O)C(C)C)Cc1ccc(F)cc1)[C@@H](C)O | > 30
7 | CC(=O)NC1CC/C=C\CCCC(C(=O)N[C@@H](Cc2ccc(O)cc2)C(=O)N[C@@H](Cc2c[nH]c3ccccc23)C(=O)N[C@@H](CCCNC(=N)N)C(=O)N[C@@H](CCCCN)C(=O)N[C@@H](Cc2ccccc2)C(=O)NCC(=O)NCCOCC(=O)N[C@H](CCCCN)C(N)=O)NC(=O)[C@H](CCC(N)=O)NC(=O)[C@H](Cc2c[nH]c3ccccc23)NC(=O)[C@H]([C@@H](C)O)NC(=O)[C@H](CCCNC(=N)N)NC1=O (some centres undefined) | 1 to 10
8 | CC(=O)N[C@@H](CCC(N)=O)C(=O)N[C@H](C(=O)N[C@@H](Cc1c[nH]c2ccccc12)C(=O)N[C@@H](CCC(N)=O)C(=O)N[C@@H](CS)C(=O)N[C@@H](Cc1ccc(O)cc1)C(=O)N[C@@H](Cc1c[nH]c2ccccc12)C(=O)N(C)[C@@H](CC(C)C)C(=O)N[C@@H](CCC(=O)O)C(=O)N[C@@H](CC(N)=O)C(=O)NCC(N)=O)[C@@H](C)O | > 6
9 | CC(C)[C@H](NC(=O)[C@H](Cc1cnc[nH]1)NC(=O)[C@H](Cc1c[nH]c2ccccc12)NC(=O)[C@H](Cc1ccc(O)cc1)NC(=O)[C@H](CS)NC(=O)[C@@H](NC(=O)[C@H](Cc1c[nH]c2ccccc12)NC(=O)[C@H](CC(=O)O)NC(=O)[C@H](CO)NC(=O)[C@@H](N)CS)C(C)C)C(=O)N[C@@H](Cc1ccc(O)cc1)C(=O)NCC(N)=O (H-CSDWVCYWHVYG-NH2) | 0.5 to 1
10 | CC(=O)N[C@@H](CS)C(=O)N[C@@H](C)C(=O)N[C@@H](CC(=O)O)C(=O)N[C@@H](Cc1c[nH]c2ccccc12)C(=O)N[C@H](C(=O)N[C@@H](CS)C(=O)N[C@@H](Cc1ccc(O)cc1)C(=O)N[C@@H](Cc1c[nH]c2ccccc12)C(=O)N[C@@H](Cc1cnc[nH]1)C(=O)N[C@@H](CCCCN)C(=O)N[C@@H](Cc1ccccc1)C(=O)NCC(=O)O)C(C)C | > 1
11 | CC(=O)NC1C/C=C\CCCC(C(=O)N[C@@H](Cc2ccc(O)cc2)C(=O)N[C@@H](Cc2c[nH]c3ccccc23)C(=O)N[C@@H](CCCNC(=N)N)C(=O)N[C@@H](CCCCN)C(=O)N[C@@H](Cc2ccccc2)C(=O)NCC(=O)NCCOCC(=O)N[C@H](CCCCN)C(N)=O)NC(=O)[C@H](CCC(N)=O)NC(=O)[C@H](Cc2c[nH]c3ccccc23)NC(=O)[C@H]([C@@H](C)O)NC(=O)[C@H](CCCNC(=N)N)NC1=O (some centres undefined) | 1 to 10
12 | CC(=O)N[C@@H](CS)C(=O)N[C@@H](CCC(N)=O)C(=O)N[C@H](C(=O)N[C@@H](Cc1c[nH]c2ccccc12)C(=O)N[C@@H](CCC(N)=O)C(=O)N[C@@H](CS)C(=O)N[C@@H](Cc1ccc(O)cc1)C(=O)N[C@@H](Cc1c[nH]c2ccccc12)C(=O)N[C@@H](CCCNC(=N)N)C(=O)N(C)[C@@H](CCCCN)C(=O)N[C@@H](CC(N)=O)C(=O)NCC(=O)NCCOCC(=O)N[C@H](CCCCN)C(N)=O)[C@@H](C)O | > 1

Second part, the compound after the results:

Row | IC50 [µM] | Compound
13 | < 0.5 | CC(=O)N[C@@H](CS)C(=O)N[C@H](C(=O)N[C@H](C(=O)N[C@@H](Cc1c[nH]c2ccccc12)C(=O)N[C@H](C(=O)N[C@@H](CS)C(=O)N[C@@H](Cc1ccc(O)cc1)C(=O)N[C@@H](Cc1c[nH]c2ccccc12)C(=O)N[C@@H](Cc1cnc[nH]1)C(=O)N[C@@H](CCC(N)=O)C(=O)N[C@@H](Cc1ccc(O)cc1)C(=O)NCC(N)=O)[C@@H](C)O)[C@@H](C)O)[C@@H](C)O (Ac-CTTWTCYWHQYG-NH2)
14 | < 0.5 | Ac-QTWQCYWRK(Ac)NG-NH2
15 | 0.1 to 1 | CC(=O)N[C@@H](CS)C(=O)N[C@@H](C)C(=O)N[C@@H](CC(=O)O)C(=O)N[C@@H](Cc1c[nH]c2ccccc12)C(=O)N[C@H](C(=O)N[C@@H](CS)C(=O)N[C@@H](Cc1ccc(O)cc1)C(=O)N[C@@H](Cc1c[nH]c2ccccc12)C(=O)N[C@@H](Cc1cnc[nH]1)C(=O)N[C@H](C(=O)N[C@@H](Cc1ccccc1)C(=O)NCC(=O)N[C@@H](C)C(=O)N1CC[C@H]1C(=O)N[C@H](CCCCN)C(=O)O)[C@@H](C)O)C(C)C
16 | < 0.5 | CC(=O)N[C@@H](CS)C(=O)N[C@@H](CCC(N)=O)C(=O)N[C@H](C(=O)N[C@@H](Cc1c[nH]c2ccccc12)C(=O)N[C@H](C(=O)N[C@@H](CS)C(=O)N[C@@H](Cc1ccc(O)cc1)C(=O)N[C@@H](Cc1c[nH]c2ccccc12)C(=O)N[C@@H](CCCNC(=N)N)C(=O)N[C@@H](CCC(=O)O)C(=O)N[C@@H](CC(N)=O)C(=O)NCC(=O)NCCOCC(=O)N[C@H](CCCCN)C(N)=O)C(C)C)[C@@H](C)O
17 | < 0.5 | CC(=O)N[C@@H](CS)C(=O)N[C@@H](C)C(=O)N[C@@H](CC(=O)O)C(=O)N[C@@H](Cc1c[nH]c2ccccc12)C(=O)N[C@H](C(=O)N[C@@H](CS)C(=O)N[C@@H](Cc1ccc(O)cc1)C(=O)N[C@@H](Cc1c[nH]c2ccccc12)C(=O)N[C@@H](Cc1cnc[nH]1)C(=O)N[C@H](C(=O)N[C@@H](Cc1ccccc1)C(=O)NCC(=O)NCCOCC(=O)N[C@H](CCCCN)C(=O)O)[C@@H](C)O)C(C)C
18 | 0.319 | CC(=O)N[C@@H](CS)C(=O)N[C@@H](CCC(N)=O)C(=O)N[C@H](C(=O)N[C@@H](Cc1c[nH]c2ccccc12)C(=O)N[C@@H](CCC(N)=O)C(=O)N[C@@H](CS)C(=O)N[C@@H](Cc1ccc(O)cc1)C(=O)N[C@@H](Cc1c[nH]c2ccccc12)C(=O)N[C@H](CC(C)C)C(=O)N[C@@H](CCC(=O)O)C(=O)N[C@@H](CC(N)=O)C(=O)NCC(N)=O)[C@@H](C)O
19 | < 0.5 | CC(=O)N[C@@H](CS)C(=O)N[C@@H](CCCNC(=N)N)C(=O)N[C@H](C(=O)N[C@@H](Cc1c[nH]c2ccccc12)C(=O)N[C@@H](CCC(N)=O)C(=O)N[C@@H](CS)C(=O)N[C@@H](Cc1ccc(O)cc1)C(=O)N[C@@H](Cc1c[nH]c2ccccc12)C(=O)N[C@@H](CCCNC(=N)N)C(=O)N[C@@H](CCCCN)C(=O)N[C@@H](Cc1ccccc1)C(=O)NCC(=O)NCCOCC(=O)N[C@H](CCCCN)C(N)=O)[C@@H](C)O
